Test results as given in patent US20240423961A1, “1H-1,2,3-TRIAZOLE-4-CARBOXYLIC ACIDS FOR TREATMENT OF HYPEROXALURIA AND KIDNEY STONES” (CANTERO THERAPEUTICS, INC., priority 2021, published 2024).
Read-outs that look alike come from different tables or passages of the source.

What was measured:
[1] = Phase 1 SAD/MAD study: safety and tolerability (adverse events, vital signs, ECG, laboratory tests); format: in vivo, human
Experimental: A Phase 1 clinical study is performed to assess the safety and dosing of Compound 1a. This Phase 1 study consists of two parts. In Part A, healthy adults randomized 3:1 (active:placebo) receive a single dose of orally administered Compound 1a or matching placebo in six (6) ascending dose groups. In Part B, healthy adults randomized 3:1 (active:placebo) received multiple doses of orally administered Compound 1a or matching placebo in six (6) ascending dose groups. Safety and tolerability were assessed by the incidence of adverse events, vital signs, electrocardiograms, and clinical laboratory tests. Pharmacokinetics and pharmacodynamics (changes in plasma and urine glycolate) were measured using validated bioanalytical assays.
Study Design: The study was approved by the Advarra Institutional Review Board (Columbia, MD). All participants provided written informed consent. The trial was conducted at a single center (Celerion, Tempe, Arizona) according to the Good Clinical Practice guidelines of the International Conference on Harmonization and the World Health Organization Declaration of Helsinki. The study was a randomized, double-blind, placebo-controlled, single and multiple ascending dose study. The primary objective of the study was to evaluate the safety and tolerability of single and multiple doses of Compound 1a administered to healthy adult volunteers. The secondary objectives were to characterize the pharmacokinetics (PK) of Compound 1a and to describe the pharmacodynamic (PD) properties in healthy adult volunteers. The study also evaluated the effect of food on the PK of Compound 1a.
(§1) Subject disposition: Six cohorts of 6 to 8 subjects each (N=up to 48) were administered single doses of 40, 120, 360, 1,000, 2,000, and 3,000 mg of Compound 1a in Part A under fasting conditions. Following a 2-week washout, subjects in the 1,000 mg cohort were administered a second 1,000 mg single dose following a high-fat breakfast. Six cohorts of 8 healthy subjects each were administered multiple doses of 75 mg […] (qd), 125 mg every 12 hours (q12 h), 500 mg q12 h, 500 mg qd, 750 mg qd, and 1,000 mg qd for 7 days in the MAD Part B (FIG. 1).

[2] = Phase 1 SAD/MAD study: plasma pharmacokinetics of Compound 1a (LC-MS-MS, noncompartmental analysis); format: in vivo, human; conditions: human, plasma, oral; for Tmax / half-life: geometric mean (geometric CV %); for Tmax: read-out: Tmax; for half-life: read-out: t1/2 (converted); for Cmax at 7 days: read-out: Day 7 Cmax; for Tmax at 7 days: read-out: Day 7 Tmax
Experimental: Pharmacokinetics: Human K2-ethylenediaminetetraacetic acid (K2-EDTA) plasma samples were analyzed for Compound 1a by a validated method over a range of 1.0 to 1000 ng/mL based on the analysis of 100 μL of sample. Human plasma containing Compound 1a and the internal standard, Compound 1a-D4, was extracted using liquid-liquid extraction and analyzed by a Sciex API 4000 LC-MS-MS equipped with an HPLC column. The peak area of the m/z 370.2→298.0 Compound 1a product ion was measured against the peak area of the m/z 374.3→302.4 Compound 1a-D4 internal standard product ion. Quantitation was performed using a weighted 1/x^2 linear least squares regression analysis generated from calibration standards prepared on the day of extraction.
Pharmacokinetic analysis: Pharmacokinetic calculations based on Compound 1a plasma concentrations were performed using noncompartmental analysis in Phoenix WinNonlin (Certara, Princeton, New Jersey). […] Accumulation ratio based on Cmax was calculated as (Cmax,day 7)/(Cmax, day 1).
as §1

[3] = Part A single ascending dose, 40 mg (n = 7)
[4] = Part A single ascending dose, 120 mg (n = 8)
[5] = Part A single ascending dose, 360 mg (n = 6)
[6] = Part A single ascending dose, 1,000 mg (n = 8)
[7] = Part A single ascending dose, 2,000 mg (n = 8)
[8] = Part B multiple ascending dose, 125 mg q12 h (n = 8)
[9] = Part B multiple ascending dose, 500 mg q12 h (n = 8)
[10] = Part B multiple ascending dose, 500 mg qd (n = 8)
[11] = 40 mg, single dose 40 mg, healthy volunteers
[12] = 75 mg, MAD 75 mg qd for 7 days, average
[13] = 120 mg, single dose 120 mg, healthy volunteers
[14] = 125 mg, MAD 125 mg q12h for 7 days, average
[15] = 360 mg, single dose 360 mg, healthy volunteers
[16] = 500 mg, MAD 500 mg q12h for 7 days, average
[17] = 500 mg, MAD 500 mg qd for 7 days, average
[18] = 750 mg, MAD 750 mg qd for 7 days, average
[19] = 1000 mg, MAD 1000 mg qd for 7 days, average

O.O=C([O-])c1nn[nH]c1Oc1ccc(-c2ccc(C3CC(F)(F)C3)cc2)cc1.[Na+] [Compound 1a, sodium 5-((4′-(3,3-difluorocyclobutyl)-[1,1′-biphenyl]-4-yl)oxy)-1H-1,2,3-triazole-4-carboxylate monohydrate]
AEs leading to study discontinuation ([1]; Part A and Part B): no AEs leading to study discontinuation | dose-limiting toxicities ([1]; Part A and Part B): No dose-limiting toxicities were observed | intensity of AEs ([1]; Part A and Part B): all were mild to moderate in intensity | post dose electrocardiogram findings ([1]; Part A and Part B): nor were there clinically important post dose electrocardiogram findings | safety laboratory tests ([1]; Part A and Part B): no clinically significant changes or trends observed | serious or severe AEs ([1]; Part A and Part B): No serious or severe AEs were reported | AEs [1, 3]: 10 | SAEs [1, 3]: 0 | AEs [1, 4]: 1 | SAEs [1, 4]: 0 | AEs [1, 5]: 0 | SAEs [1, 5]: 0 | AEs [1, 6]: 4 | SAEs [1, 6]: 0 | AEs [1, 7]: 3 | SAEs [1, 7]: 0 | AEs [1, 8]: 6 | SAEs [1, 8]: 0 | AEs [1, 9]: 12 | SAEs [1, 9]: 0 | AEs [1, 10]: 1 | SAEs [1, 10]: 0 | tolerability ([1]; single doses up to 3,000 mg and multiple doses up to 2,000 mg per day (1,000 mg qd)): well tolerated | Cmax ([2]; 40 mg, single dose 40 mg, healthy volunteers, geometric mean): 2040 ng/mL | Tmax [2, 11]: 1.9 h | half-life [2, 11]: 25 h | AUC(0-t) ([2]; 40 mg, single dose 40 mg, healthy volunteers, geometric mean, read-out: AUClast): 13900 ng·h/mL | AUC(0-t) ([2]; 75 mg, MAD 75 mg qd for 7 days, average, read-out: Day 7 AUC0-24): 23900 ng·h/mL | Cmax at 7 days [2, 12]: 3420 ng/mL | Tmax at 7 days [2, 12]: 2.45 h | Cmax ([2]; 120 mg, single dose 120 mg, healthy volunteers, geometric mean): 5020 ng/mL | Tmax [2, 13]: 2.3 h | half-life [2, 13]: 22 h | AUC(0-t) ([2]; 120 mg, single dose 120 mg, healthy volunteers, geometric mean, read-out: AUClast): 41000 ng·h/mL | AUC(0-t) ([2]; 125 mg, MAD 125 mg q12h for 7 days, average, read-out: Day 7 AUC0-12): 45600 ng·h/mL | Cmax at 7 days [2, 14]: 6450 ng/mL | Tmax at 7 days [2, 14]: 2.04 h | Cmax ([2]; 360 mg, single dose 360 mg, healthy volunteers, geometric mean): 10500 ng/mL | Tmax [2, 15]: 2.3 h | half-life [2, 15]: 26 h | AUC(0-t) ([2]; 360 mg, single dose 360 mg, healthy volunteers, geometric mean, read-out: AUClast): 83200 ng·h/mL | AUC(0-t) ([2]; 500 mg, MAD 500 mg q12h for 7 days, average, read-out: Day 7 AUC0-12): 342000 ng·h/mL | Cmax at 7 days [2, 16]: 43800 ng/mL | Tmax at 7 days [2, 16]: 1.44 h | AUC(0-t) ([2]; 500 mg, MAD 500 mg qd for 7 days, average, read-out: Day 7 AUC0-24): 133000 ng·h/mL | Cmax at 7 days [2, 17]: 17000 ng/mL | Tmax at 7 days [2, 17]: 2.35 h | AUC(0-t) ([2]; 750 mg, MAD 750 mg qd for 7 days, average, read-out: Day 7 AUC0-24): 214000 ng·h/mL | Cmax at 7 days [2, 18]: 24300 ng/mL | Tmax at 7 days [2, 18]: 2.62 h | AUC(0-t) ([2]; 1000 mg, MAD 1000 mg qd for 7 days, average, read-out: Day 7 AUC0-24): 303000 ng·h/mL | Cmax at 7 days [2, 19]: 29900 ng/mL | Tmax at 7 days [2, 19]: 2.18 h
